Assay results: patent publication US7192924B2, “Corticotropin releasing factor 2 receptor agonists” (priority 2002, dated 2007)
Peptide text beside a SMILES is read from it.

Experiments:
CRF1R = molecular target: T1, CRF1R (Homo sapiens, UniProt P34998); assay: CRF1R agonist activity (EC50, Emax), called comparative CRF binding; type: cell-based; settings: read-out: CRF1R EC50
T1 sequence (P34998 24-415): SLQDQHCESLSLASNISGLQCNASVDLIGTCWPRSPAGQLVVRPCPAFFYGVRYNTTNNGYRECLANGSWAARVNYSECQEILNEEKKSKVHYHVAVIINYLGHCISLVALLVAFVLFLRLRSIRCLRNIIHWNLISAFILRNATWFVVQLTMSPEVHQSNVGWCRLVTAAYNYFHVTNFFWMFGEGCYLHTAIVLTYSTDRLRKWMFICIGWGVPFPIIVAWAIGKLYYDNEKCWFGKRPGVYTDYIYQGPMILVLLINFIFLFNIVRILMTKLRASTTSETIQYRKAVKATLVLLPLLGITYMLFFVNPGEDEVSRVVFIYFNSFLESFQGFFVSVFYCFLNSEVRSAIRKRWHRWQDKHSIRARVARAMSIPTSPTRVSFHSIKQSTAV
From the text: (§1) The pharmacological activity and selectivity of the peptides of present invention can be determined using published test procedures. See, e.g, U.S. patent application Ser. No. 09/799,978. Because CRF2R and CRF1R are homologous proteins, it is expected that a certain proportion of agonists for CRF2R will also function as agonists of CRF1R. As discussed above, activation of CRF1R induces activation of the HPA axis since increased corticosteroid production leads to skeletal muscle atrophy. In most cases in which an increase in muscle mass or function is desired, it is not desirable to activate the HPA axis.
(§2) Because it is desirable to discriminate binding between CRF2R, as compared with CRF1R, the assays described above may be conducted using a cell, or membrane from a cell, which expresses only CRF2R or the assays can be conducted with a recombinant source of CRF2R. Cells expressing both forms of CRFR may be modified using homologous recombination to inactivate or otherwise disable the CRF1R gene. Alternatively, if the source of CRFR contains more than one CRFR type, the background signal produced by the receptor which is not of interest must be subtracted from the signal obtained in the assay. […] Known antagonists of CRFRs include, but, are not limited to, antalarmin (CRF1R selective), antisauvagine-30 (CRF2R selective) and astressin (nonselective for CRF1R/CRF2R).
(§3) Cell-based assays include the steps of contacting cells which express CRF1R or CRF2R with a peptide of the present invention or control and measuring activation of the CRFR by measuring the expression or activity of components of the CRFR signal transduction pathways.
(§4) As described in the background section above, CRFRs appear to couple through several different pathways including Gαs, Gαq or Gαi, depending upon the cell type. It is thought that agonist activation of CRFR allows the receptor to signal via any of these pathways, provided that the necessary pathway components are present in the particular cell type. Thus, to assay a particular peptide of the present invention for CRFR activation, an assay can use any of the signal transduction pathways as the readout even if the relevant cell type for treatment, in vivo, couples CRFR to skeletal muscle atrophy via a different pathway. […] Assays for measuring activation of these signaling pathways are known in the art.
(§5) For example, after contact with a peptide of the present invention, lysates of the cells can be prepared and assayed for induction of cAMP. cAMP is induced in response to Gαs activation. Because Gαs is activated by receptors other than CRFR and because a test peptide may be exerting its effect through CRFRs or by another mechanism, two control comparisons are relevant for determining whether the peptide increases levels of cAMP via activation of a CRFR. One control compares the cAMP level of cells contacted with the peptide and the cAMP level of cells contacted with a control compound (i.e., the vehicle in which the peptide is dissolved).
(§6) In one example, cAMP induction is measured with the use of DNA constructs containing the cAMP responsive element linked to any of a variety of reporter genes can be introduced into cells expressing CRFRs. Such reporter genes include, but are not limited to, chloramphenicol acetyltransferase (CAT), luciferase, glucuronide synthetase, growth hormone, fluorescent proteins (e.g., Green Fluorescent Protein), or alkaline phosphatase. Following exposure of the cells to the peptide, the level of reporter gene expression can be quantitated to determine the peptide's ability to increase cAMP levels and thus determine the peptide's ability to activate the CRFR.
(§7) In addition to using cells expressing full length CRFRs, cells can be engineered which express CRFRs containing the ligand binding domain of the receptor coupled to, or physically modified to contain, reporter elements or to interact with signaling proteins.

CRF2R = molecular target: T2, CRF2R (Homo sapiens, UniProt Q13324); assay: CRF2R agonist activity (EC50, Emax), called comparative CRF binding; type: cell-based; settings: read-out: CRF2R EC50
T2 sequence (Q13324 1-411): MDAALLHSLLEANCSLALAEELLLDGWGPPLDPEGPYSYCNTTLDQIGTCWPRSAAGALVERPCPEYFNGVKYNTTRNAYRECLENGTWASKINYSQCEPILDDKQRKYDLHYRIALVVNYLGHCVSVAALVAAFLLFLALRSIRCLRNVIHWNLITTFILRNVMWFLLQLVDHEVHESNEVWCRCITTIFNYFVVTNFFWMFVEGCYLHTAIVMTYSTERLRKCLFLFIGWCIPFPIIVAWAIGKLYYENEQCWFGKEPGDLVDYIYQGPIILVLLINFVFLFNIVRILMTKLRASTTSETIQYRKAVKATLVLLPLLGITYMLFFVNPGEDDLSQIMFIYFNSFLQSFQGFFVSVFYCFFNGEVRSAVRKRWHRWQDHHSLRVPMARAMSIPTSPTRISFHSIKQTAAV
From the text: as §1, §2, §3, §4, §5, §6, §7

Compound	EC50 (CRF1R) [nM]	EC50 (CRF2R) [nM]
CC[C@H](C)[C@H](N)C(=O)N[C@H](C(=O)N[C@@H](CC(C)C)C(=O)N[C@@H](CO)C(=O)N[C@@H](CC(C)C)C(=O)N[C@@H](CC(=O)O)C(=O)N[C@H](C(=O)N1CCC[C@H]1C(=O)N[C@H](C(=O)NCC(=O)N[C@@H](CC(C)C)C(=O)N[C@@H](CC(C)C)C(=O)N[C@@H](CCC(N)=O)C(=O)N[C@@H](CCC(=O)O)C(=O)N[C@@H](CC(C)C)C(=O)N[C@@H](CC(C)C)C(=O)N[C@@H](CCC(=O)O)C(=O)N[C@@H](CCSC)C(=O)N[C@@H](C)C(=O)N[C@@H](CCCNC(=N)N)C(=O)N[C@@H](C)C(=O)N[C@@H](CCC(=O)O)C(=O)N[C@@H](CCC(N)=O)C(=O)N[C@@H](CC(C)C)C(=O)N[C@@H](C)C(=O)N[C@@H](CCC(N)=O)C(=O)N[C@@H](CCC(N)=O)C(=O)N[C@@H](C)C(=O)N[C@@H](Cc1c[nH]cn1)C(=O)N[C@@H](CO)C(=O)N[C@@H](CC(N)=O)C(=O)N[C@@H](CCCNC(=N)N)C(=O)N[C@@H](CCCCN)C(=O)N[C@@H](CC(C)C)C(=O)N[C@@H](CCSC)C(=O)N[C@@H](CCC(=O)O)C(=O)N[C@H](C(=O)N[C@H](C(N)=O)[C@@H](C)CC)[C@@H](C)CC)[C@@H](C)CC)C(C)C)C(C)C [compound 1] (H-IVLSLDVPIGLLQELLEMARAEQLAQQAHSNRKLMEII-NH2; N-terminus assumed)	783	31.5
CC[C@H](C)[C@H](N)C(=O)N[C@H](C(=O)N[C@@H](CC(C)C)C(=O)N[C@@H](CO)C(=O)N[C@@H](CC(C)C)C(=O)N[C@@H](CC(=O)O)C(=O)N[C@H](C(=O)N1CCC[C@H]1C(=O)N[C@H](C(=O)NCC(=O)N[C@@H](CC(C)C)C(=O)N[C@@H](CC(C)C)C(=O)N[C@@H](CCC(N)=O)C(=O)N[C@H](C(=O)N[C@@H](CC(C)C)C(=O)N[C@@H](CC(C)C)C(=O)N[C@@H](CCC(=O)O)C(=O)N[C@@H](CCC(N)=O)C(=O)N[C@@H](CCC(=O)O)C(=O)N[C@@H](CCCCN)C(=O)N[C@@H](C)C(=O)N[C@@H](CCCNC(=N)N)C(=O)N[C@@H](C)C(=O)N[C@@H](C)C(=O)N[C@@H](CCCNC(=N)N)C(=O)N[C@@H](CCC(=O)O)C(=O)N[C@@H](CCC(N)=O)C(=O)N[C@@H](C)C(=O)N[C@H](C(=O)N[C@H](C(=O)N[C@@H](CC(N)=O)C(=O)N[C@@H](C)C(=O)N[C@@H](CCCNC(=N)N)C(=O)N[C@H](C(=O)N[C@@H](CC(C)C)C(=O)N[C@@H](C)C(=O)N[C@@H](CCCNC(=N)N)C(=O)N[C@H](C(N)=O)C(C)C)[C@@H](C)CC)[C@@H](C)O)[C@@H](C)O)[C@@H](C)CC)[C@@H](C)CC)C(C)C)C(C)C [compound 107] (H-IVLSLDVPIGLLQILLEQEKARAAREQATTNARILARV-NH2)	≥ 1000	
CC[C@H](C)[C@H](N)C(=O)N[C@H](C(=O)N[C@@H](CC(C)C)C(=O)N[C@@H](CO)C(=O)N[C@@H](CC(C)C)C(=O)N[C@@H](CC(=O)O)C(=O)N[C@H](C(=O)N1CCC[C@H]1C(=O)N[C@H](C(=O)NCC(=O)N[C@@H](CC(C)C)C(=O)N[C@@H](CC(C)C)C(=O)N[C@@H](CCC(N)=O)C(=O)N[C@H](C(=O)N[C@@H](CC(C)C)C(=O)N[C@@H](CC(C)C)C(=O)N[C@@H](CCC(=O)O)C(=O)N[C@@H](CCC(N)=O)C(=O)N[C@H](C(=O)N[C@@H](CCCCN)C(=O)N[C@@H](C)C(=O)N[C@@H](CC(=O)O)C(=O)N[C@@H](C)C(=O)N[C@@H](C)C(=O)N[C@@H](CCCNC(=N)N)C(=O)N[C@@H](CCC(=O)O)C(=O)N[C@@H](CCC(N)=O)C(=O)N[C@@H](C)C(=O)N[C@H](C(=O)N[C@H](C(=O)N[C@@H](CC(N)=O)C(=O)N[C@@H](C)C(=O)N[C@@H](CCCNC(=N)N)C(=O)N[C@H](C(=O)N[C@@H](CC(C)C)C(=O)N[C@@H](C)C(=O)N[C@@H](CCCNC(=N)N)C(=O)N[C@H](C(N)=O)C(C)C)[C@@H](C)CC)[C@@H](C)O)[C@@H](C)O)[C@@H](C)O)[C@@H](C)CC)[C@@H](C)CC)C(C)C)C(C)C [compound 108] (H-IVLSLDVPIGLLQILLEQTKADAAREQATTNARILARV-NH2; N-terminus assumed)	> 100	79
CC[C@H](C)[C@H](N)C(=O)N[C@H](C(=O)N[C@@H](CC(C)C)C(=O)N[C@@H](CO)C(=O)N[C@@H](CC(C)C)C(=O)N[C@@H](CC(=O)O)C(=O)N[C@H](C(=O)N1CCC[C@H]1C(=O)N[C@H](C(=O)NCC(=O)N[C@@H](CC(C)C)C(=O)N[C@@H](CC(C)C)C(=O)N[C@@H](CCC(N)=O)C(=O)N[C@H](C(=O)N[C@@H](CC(C)C)C(=O)N[C@@H](CC(C)C)C(=O)N[C@@H](CCC(=O)O)C(=O)N[C@@H](CCC(N)=O)C(=O)N[C@@H](CCC(=O)O)C(=O)N[C@@H](CCCNC(=N)N)C(=O)N[C@@H](CCC(N)=O)C(=O)N[C@@H](CCCNC(=N)N)C(=O)N[C@@H](C)C(=O)N[C@@H](C)C(=O)N[C@@H](CCCNC(=N)N)C(=O)N[C@@H](CCC(=O)O)C(=O)N[C@@H](CCC(N)=O)C(=O)N[C@@H](C)C(=O)N[C@H](C(=O)N[C@H](C(=O)N[C@@H](CC(N)=O)C(=O)N[C@@H](C)C(=O)N[C@@H](CCCNC(=N)N)C(=O)N[C@H](C(=O)N[C@@H](CC(C)C)C(=O)N[C@@H](C)C(=O)N[C@@H](CCCNC(=N)N)C(=O)N[C@H](C(N)=O)C(C)C)[C@@H](C)CC)[C@@H](C)O)[C@@H](C)O)[C@@H](C)CC)[C@@H](C)CC)C(C)C)C(C)C [compound 111] (H-IVLSLDVPIGLLQILLEQERQRAAREQATTNARILARV-NH2; N-terminus assumed)	> 100	11
CC[C@H](C)[C@H](N)C(=O)N[C@H](C(=O)N[C@@H](CC(C)C)C(=O)N[C@@H](CO)C(=O)N[C@@H](CC(C)C)C(=O)N[C@@H](CC(=O)O)C(=O)N[C@H](C(=O)N1CCC[C@H]1C(=O)N[C@H](C(=O)NCC(=O)N[C@@H](CC(C)C)C(=O)N[C@@H](CC(C)C)C(=O)N[C@@H](CCC(N)=O)C(=O)N[C@H](C(=O)N[C@@H](CC(C)C)C(=O)N[C@@H](CC(C)C)C(=O)N[C@@H](CCC(=O)O)C(=O)N[C@@H](CCC(N)=O)C(=O)N[C@@H](C)C(=O)N[C@@H](CCCNC(=N)N)C(=O)N[C@@H](C)C(=O)N[C@@H](CCCNC(=N)N)C(=O)N[C@@H](C)C(=O)N[C@@H](C)C(=O)N[C@@H](CCCNC(=N)N)C(=O)N[C@@H](CCC(=O)O)C(=O)N[C@@H](CCC(N)=O)C(=O)N[C@@H](C)C(=O)N[C@H](C(=O)N[C@H](C(=O)N[C@@H](CC(N)=O)C(=O)N[C@@H](C)C(=O)N[C@@H](CCCNC(=N)N)C(=O)N[C@H](C(=O)N[C@@H](CC(C)C)C(=O)N[C@@H](C)C(=O)N[C@@H](CCCNC(=N)N)C(=O)N[C@H](C(=O)N[C@@H](CCSC)C(N)=O)C(C)C)[C@@H](C)CC)[C@@H](C)O)[C@@H](C)O)[C@@H](C)CC)[C@@H](C)CC)C(C)C)C(C)C [compound 356] (H-IVLSLDVPIGLLQILLEQARARAAREQATTNARILARVM-NH2; N-terminus assumed)		83
